This note sets out measurements from patent US11484607B2, “PSMA-targeted NIR dyes and their uses” (On Target Laboratories, LLC, priority 2015, dated 2022).

pIC50: −log10 of the molar value. A value given as a limit tells only on which side of the number the result lay.

The subject of one data set is 22Rv1 cells. Description: Binding and internalization of OTL78 by epifluorescence microscopy. It is filed as cell-based, human. The note with it: 100 nM, 1 h. The protocol: (§1) Confocal Microscopy: 22Rv1, LNCaP, or PC3 cells (50,000 cells/well in 1 mL) were seeded into poly-D-lysine microwell Petri dishes and allowed cells to form monolayers over 12 h. Spent medium was replaced with fresh medium containing OTL78 (100 nM) and cells were incubated for 1 h at 37° C. or 4° C. After rinsing with fresh medium (2×1.0 mL) and saline (lx 1.0 mL), fluorescence images were acquired using an epi-microscopy.

For the next data set, the system named is LNCaP cells. The description is as above. In kind it is cell-based, human. Particulars: 100 nM, 1 h. The protocol: as §1
A further data set concerns PC3 cells. The description is as above. It is filed as cell-based, human. Particulars: 100 nM, 1 h. The protocol:
as §1

In the next data set the target is T1, PSMA on 22Rv1 cells (Homo sapiens, UniProt Q04609).
T1 construct: host or cells: 22Rv1 human prostate cancer cells
T1 sequence (Q04609 whole entry): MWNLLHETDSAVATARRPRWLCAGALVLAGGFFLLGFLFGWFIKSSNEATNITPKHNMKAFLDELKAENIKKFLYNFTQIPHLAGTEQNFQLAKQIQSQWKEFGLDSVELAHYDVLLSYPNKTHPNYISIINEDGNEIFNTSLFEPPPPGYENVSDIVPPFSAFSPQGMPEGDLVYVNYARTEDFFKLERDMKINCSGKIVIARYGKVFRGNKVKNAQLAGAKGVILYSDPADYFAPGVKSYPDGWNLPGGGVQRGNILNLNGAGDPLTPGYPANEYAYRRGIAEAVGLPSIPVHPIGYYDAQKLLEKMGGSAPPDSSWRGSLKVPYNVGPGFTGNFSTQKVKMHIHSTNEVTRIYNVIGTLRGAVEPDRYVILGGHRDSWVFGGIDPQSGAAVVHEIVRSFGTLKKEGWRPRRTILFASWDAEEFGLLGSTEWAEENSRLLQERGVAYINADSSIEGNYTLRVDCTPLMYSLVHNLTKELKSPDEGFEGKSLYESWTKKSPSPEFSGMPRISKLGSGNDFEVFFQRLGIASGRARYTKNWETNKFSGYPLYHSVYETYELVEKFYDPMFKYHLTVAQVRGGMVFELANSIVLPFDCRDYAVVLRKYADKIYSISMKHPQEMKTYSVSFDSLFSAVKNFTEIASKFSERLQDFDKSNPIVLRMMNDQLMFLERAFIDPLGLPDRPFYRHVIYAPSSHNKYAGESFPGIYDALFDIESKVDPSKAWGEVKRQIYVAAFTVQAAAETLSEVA
Description: OTL78 relative affinity (IC50) by competition with DUPA-FITC. In kind it is binding. The note with it: 100 nM DUPA-FITC, 30 min at 4° C., flow cytometer; read-out: IC50 competing with DUPA-FITC. The protocol: In vitro binding: For OTL78 relative affinity (IC50), 22Rv1 or PC3 cells were plated into a T75 flask and allowed to form a monolayer over 48 h. After trypsin digestion, released cells were transferred into centrifuge tubes (1×10^6 cells/tube) and centrifuged. Spent medium in each tube was replaced with 100 nM DUPA-FITC in the presence of increasing concentration (0.001 nM-10 μM) of OTL78 in fresh medium (0.5 mL). After incubating for 30 min at 4° C., cells were rinsed with culture medium (2×1.0 mL) and saline (1×1.0 mL) to remove any unbound DUPA-FITC. Cells were then re-suspended in saline (0.5 mL) and cell bound fluorescence was quantified using a flow cytometer. The relative affinities were calculated using a plot of percent cell bound fluorescence versus the log concentration of OTL78 using GraphPad Prism 6.
(In general: In flow cytometry, cells or beads pass a laser one at a time.)

Data set [1] deals with 22Rv1 tumor xenografts.
Description: (§2) Whole body Imaging & Tissue biodistribution: Seven-week-old male nu/nu mice were inoculated subcutaneously with 5.0×106 22Rv1, LNCaP, PC3 or A549 cells/mouse in 50% high concentrated matrigel with RPMI1640 medium on the shoulder. Growth of the tumors was measured in perpendicular directions every 2 days using a caliper (body weights were monitored on the same schedule), and the volumes of the tumors were calculated as 0.5×L×W2 (L=longest axis and W=axis perpendicular to L in millimeters). Once tumors reached approximately 300-400 mm3 in volume, animals (3-5 mice/group) were intravenously injected with appropriate dose of OTL78 in saline.
(§3) For whole body imaging and biodistribution studies, animals were euthanized after 2 h of administration of OTL78 by CO2 asphyxiation. For time dependent studies, animals were imaged under anesthesia using isoflurane. Imaging experiments were then performed using IVIS or AMI image systems. Following whole body imaging, animals were dissected and selected tissues were analyzed for fluorescence activity using IVIS or AMI image system and ROI of the tissues were calculated using Living Image 4.0 software or AMIView Image Analysis Software.
In another data set the test system is PC3 tumor xenografts. The data set can be described thus: OTL78 whole body imaging and tissue biodistribution, subcutaneous tumor. The note with it: 10 nmol, 2 h. It is filed as in vivo, mice.
Data set [2] relates to 22Rv1 tumor xenografts. Description: Fluorescence-guided surgery of prostate tumors with OTL78. In kind it is in vivo, mice. The protocol: Growth of the tumors was measured as previously mentioned. After one month, the animals were mixed and divided into 2 groups (n=5 mice/group). Two hours after administering OTL78 (10 nmol in 100 μL saline per mouse), animals were given 1-5% isoflurane for anesthesia and imaged using AMI image system. After an insertion was made using scalpel through the skin, surgical removal of the tumors was performed either following conventional technique (e.g. visualization under white light or palpation) or with the aid of fluorescence guidance (FGS: debulking of visible tumors under conventional method followed by resection of residual fluorescence tissues under image-guided method). After the surgery, the skin was closed using staples and imaged the mice using AMI image system. After imaging, the residual fluorescent tissues from selected mice of conventional surgery group and tissues samples from the tumor beds of selected mice of FGS group were submit for pathological (IHC) analysis. Response to surgical treatment was monitored for over 30 days by imaging using AMI image system 2 h after injecting OTL78 (10 nmol/mouse) and by measuring the growth of the tumor volume using a caliper. Any animal with tumor volume ≥1000 mm3 were euthanized. Tumor-free survival of the mice was documented as % survival vs. time using GraphPad Prism 6. IHC studies were done as explained bellow in the Safety Studies.

Data set [3] in a line: Excitation and emission spectra by fluorometer. Particulars: same concentration, 1 μM in 1 mL of PBS. In kind it is physicochemical. The protocol: FIG. 38B—Excitation (Ex) & emission (Em) spectra of OTL78 (1 μM) and S0456 (1 μM) in 1 mL of PBS obtained using fluorometer.
Results and Conclusions: In an effort to improve limitations in current clinical practice of radical prostatectomy and tumor-specific imaging agents that are in the preclinical stages, OTL78 was assembled using: (i) a high affinity PSMA-targeting ligand (coined DUPA), (ii) a rationally designed 14 atoms long polyethylene glycol-dipeptide linker, and (iii) an inexpensive NIR dye ([…]) named S0456 (see FIG. 38A for the chemical structure). The dipeptide consisting of phenylalanine-tyrosine was designed to fit to the contours and chemistry of the tunnel accessing the binding pocket of the PSMA protein.

A short description of data set [4]: Safety study of OTL78 (body weight, histopathology, clinical pathology).
Description: Safety Study: Seven-week-old healthy male Balb/c (5 mice/group) were administered with 6 μmol of freshly prepared OTL78 or saline dissolved in 100 μL of saline via tail vein injection on day zero. Body weights and clinical observations were monitored prior to dosing and daily thereafter from day zero to 14.
For immunohistopathology (IHC) studies, the animals were euthanized by CO2 asphyxiation on the day 14 and selected tissues (brain, heart, lung, liver, spleen, kidney, stomach, small intestine, large intestine, muscle, and skin) were collected into vials containing 4% formalin. Formalin fixed tissues were sectioned into 10 μm thick sections and mounted onto Superfrost Plus™ slides (Fisher Scientific, Pittsburgh Pa.). After staining the slides with H&E, IHC analysis of the tissues was conducted to determine to the toxicity of OTL78.
For clinical pathology studies, the animals were euthanized by CO2 asphyxiation on the day 14 and blood was collected to heparin by cardiac punch and blood work analysis was conducted at Purdue clinical pathology lab.
A further data set concerns 22Rv1 orthotopic tumors. Description: OTL78 imaging of orthotopic prostate tumors, AMI image system. In kind it is in vivo, SCID mice. Particulars: 10 nmol, 2 h. How it is done: For orthotopic tumors, 2×10^5 22Rv1 cells/mouse in 10% high concentrated (HC) matrigel with RPMI1640 medium were surgically implanted in the prostate of seven-week-old male SCID mice. Briefly, seven-week-old male SCID mice were given 1-5% isoflurane for anesthesia and subcutaneous injection of 5 mg/kg meloxicam preoperatively for analgesia. The mice were placed dorsal side up and washed above the prostate with a chlorhexidine scrub to ensure a sterile area for incision. After an insertion was made using scalpel through the skin, the peritoneal lining was lifted to make a small incision using a scissor and widened using forceps. Dorsal lobes were exteriorized and gently stabilized with a wet (PBS) cotton swab. 22Rv1 cells (in 10 μL of 10% HC-matrigel) were injected the prostate using a 28-gage needle. After placing the prostate back into the peritoneum, the abdominal wall was sutured, the body wall was closed using 3-0 or 4-0 vicryl and the skin was closed using staples. Animals were monitored until use them for the studies. After one month, the animals were administered with OTL78 (10 nmol in 100 μL saline per mouse), euthanized after 2 h by CO2 asphyxiation, and imaged using AMI image system.

Where [5] appears, read: 0.3-120 nmol/mouse tested, 2 hour time point, IVIS.

Description for PC3 tumor xenografts: as §2, §3

Regarding `CC1(C)C(/C=C/C2=C(Oc3ccc(C[C@H](NC(=O)[C@H](Cc4ccccc4)NC(=O)CCOCCOCCNC(=O)CC[C@H](NC(=O)N[C@@H](CCC(=O)O)C(=O)O)C(=O)O)C(=O)O)cc3)C(=C/C=C3/N(CCCCS(=O)(=O)O)c4ccc(S(=O)(=O)O)cc4C3(C)C)/CCC2)=[N+](CCCCS(=O)(=O)[O-])c2ccc(S(=O)(=O)O)cc21` [OTL78], the “labelling of 22Rv1 cells” value in the data set with 22Rv1 cells is listed as “able to efficiently label”. For the same compound, in the data set with LNCaP cells, the “labelling of LNCaP cells” value was “able to efficiently label”. The “labelling of PC3 cells” value with PC3 cells was “not PC3 cells”. The pIC50 at PSMA on 22Rv1 cells is 8.15. The “accumulation in 22Rv1 tumors” value in the data set on 22Rv1 tumor xenografts [1] (10 nmol, 2 h) was “accumulated predominantly”. In the data set on 22Rv1 tumor xenografts [1] (setting [5]), the “dose of best TBR” value is 3-10 nmol/mouse and the “dose range providing excellent TBR” value is on record as 1-30 nmol per mouse. The “time for skin uptake to clear” value in the data set on 22Rv1 tumor xenografts [1] (mouse, in vivo) is 4 to 5 h. Further, the “fluorescence intensity of PC3 tumors compared to 22Rv1 tumors” value in the data set with PC3 tumor xenografts is approximately 6 folds less. Also, the “time to localize 22Rv1 tumors with high contrast” value with 22Rv1 tumor xenografts [2] (10 nmol, preoperative images) is listed as not above 2 h. The “postoperative residual fluorescence in the tumor bed, FGS cohorts” value in the data set with 22Rv1 tumor xenografts [2] (10 nmol, surgery at 2 h) was “no significant fluorescence”. For the same compound, the “biochemical recurrence (BCR), FGS cohort” value in the data set with 22Rv1 tumor xenografts [2] (monitored for over a month) is “no sign of BCR”. The “survival, FGS cohorts” value in the data set on 22Rv1 tumor xenografts [2] (over 30 days) is “survived during the study”. Further, in the data set with 22Rv1 tumor xenografts [2] (pathological analysis), the “residual tumors in tumor margin/bed tissues, FGS cohorts” value is listed as “no residual tumors”. Also, the “enhancement of the fluorescence of S0456” value in [3] is not below 2. Also, in data set [4] (6 μmol/mouse (600× of normal dose), day zero to 14), the “body weight change over the course of the study” value was less than 5 % increase. In [4] (6 μmol/mouse, day 14), the “clinical pathology analysis on blood samples” value is recorded as “No noticeable toxicities” and the “pathological changes in H&E staining of tissues” value is listed as “no obvious pathological changers”. The “accumulation in orthotopic prostate tumors” value in the data set with 22Rv1 orthotopic tumors was “mainly accumulated in prostate tumors with no fluorescence observed in other tissues except kidneys”. The “detection of local regional metastasis in seminal vesicles” value in the data set with 22Rv1 orthotopic tumors (in the presence of primary tumor) is “able to detect”.

What is called pIC50 is the negative decadic logarithm of the IC50, by convention in mol/L.
